Test results taken from PMC3901045 (Lab on a chip, 2013).

Molecular target: T1, cyt P450 1A1 (Homo sapiens, UniProt P04798)
T1 sequence (P04798 1-512): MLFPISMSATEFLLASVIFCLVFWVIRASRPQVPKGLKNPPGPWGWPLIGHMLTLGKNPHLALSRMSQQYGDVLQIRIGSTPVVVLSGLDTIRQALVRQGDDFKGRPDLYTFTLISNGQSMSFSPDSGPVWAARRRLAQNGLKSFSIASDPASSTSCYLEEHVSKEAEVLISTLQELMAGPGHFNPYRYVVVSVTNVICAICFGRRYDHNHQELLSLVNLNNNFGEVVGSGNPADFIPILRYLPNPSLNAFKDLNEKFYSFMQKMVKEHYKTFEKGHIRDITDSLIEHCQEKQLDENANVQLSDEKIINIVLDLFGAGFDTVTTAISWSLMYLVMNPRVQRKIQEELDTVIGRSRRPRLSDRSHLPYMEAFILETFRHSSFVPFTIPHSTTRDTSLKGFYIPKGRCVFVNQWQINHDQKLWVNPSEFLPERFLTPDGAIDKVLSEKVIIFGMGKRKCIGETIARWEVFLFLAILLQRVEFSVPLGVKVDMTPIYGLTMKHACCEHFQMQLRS
Type: biochemical

COc1ccc(/C=C/c2cc(O)cc(O)c2)cc1O [rhapontigenin]
IC50: 32 ± 1 nM
